Test: xn = mol fraction of the nth substance listed
Conditions: 101 kPa, Liquid; for viscosity: Capillary tube (Ostwald / Ubbelohde) method; for speed of sound: Frequency=3 MHz, Linear variable-path acoustic interferometer

Cc1ccccc1C [1,2-dimethylbenzene] + C1COCCO1
Conditions	speed of sound [m/s]	viscosity [mPa·s]
293.15 K, x2 = 0	1367.7	0.8066
293.15 K, x2 = 0.0672	1361.7	0.8314
293.15 K, x2 = 0.1391	1355.5	0.8598
293.15 K, x2 = 0.2103	1350	0.8896
293.15 K, x2 = 0.2853	1345.3	0.9224
293.15 K, x2 = 0.3543	1341.7	0.9541
293.15 K, x2 = 0.4293	1338.8	0.9899
293.15 K, x2 = 0.5092	1336.9	1.03
293.15 K, x2 = 0.581	1336.5	1.067
293.15 K, x2 = 0.6518	1337.4	1.104
293.15 K, x2 = 0.7248	1339.8	1.144
293.15 K, x2 = 0.7888	1343.5	1.18
293.15 K, x2 = 0.8595	1349.3	1.221
293.15 K, x2 = 0.9298	1357.1	1.263
298.15 K, x2 = 0	1347.5	0.7576
298.15 K, x2 = 0.0672	1341.5	0.7791
298.15 K, x2 = 0.1391	1335.1	0.8033
298.15 K, x2 = 0.2103	1329.6	0.829
298.15 K, x2 = 0.2853	1324.8	0.8576
298.15 K, x2 = 0.3543	1321	0.8851
298.15 K, x2 = 0.4293	1317.9	0.9162
298.15 K, x2 = 0.5092	1315.9	0.9509
298.15 K, x2 = 0.581	1315.4	0.9833
298.15 K, x2 = 0.6518	1316.2	1.016
298.15 K, x2 = 0.7248	1318.3	1.052
298.15 K, x2 = 0.7888	1321.9	1.083
298.15 K, x2 = 0.8595	1327.4	1.12
298.15 K, x2 = 0.9298	1334.9	1.157
303.15 K, x2 = 0	1329.4	0.7132
303.15 K, x2 = 0.0672	1323	0.7321
303.15 K, x2 = 0.1391	1316.5	0.7527
303.15 K, x2 = 0.2103	1311	0.7747
303.15 K, x2 = 0.2853	1306	0.7992
303.15 K, x2 = 0.3543	1302	0.823
303.15 K, x2 = 0.4293	1298.6	0.8502
303.15 K, x2 = 0.5092	1296.3	0.8806
303.15 K, x2 = 0.581	1295.5	0.909
303.15 K, x2 = 0.6518	1296	0.9382
303.15 K, x2 = 0.7248	1298	0.9693
303.15 K, x2 = 0.7888	1301.3	0.9977
303.15 K, x2 = 0.8595	1306.5	1.03
303.15 K, x2 = 0.9298	1313.7	1.063
308.15 K, x2 = 0	1313.3	0.669
308.15 K, x2 = 0.0672	1306.3	0.6862
308.15 K, x2 = 0.1391	1299.9	0.7045
308.15 K, x2 = 0.2103	1293.9	0.724
308.15 K, x2 = 0.2853	1288.5	0.746
308.15 K, x2 = 0.3543	1284.3	0.7675
308.15 K, x2 = 0.4293	1280.4	0.792
308.15 K, x2 = 0.5092	1277.8	0.8194
308.15 K, x2 = 0.581	1276.7	0.8452
308.15 K, x2 = 0.6518	1276.8	0.8715
308.15 K, x2 = 0.7248	1278.4	0.8997
308.15 K, x2 = 0.7888	1281.2	0.9256
308.15 K, x2 = 0.8595	1285.9	0.9546
308.15 K, x2 = 0.9298	1292.5	0.9846
313.15 K, x2 = 0	1298.5	0.6315
313.15 K, x2 = 0.0672	1291	0.647
313.15 K, x2 = 0.1391	1284	0.6637
313.15 K, x2 = 0.2103	1277.8	0.6813
313.15 K, x2 = 0.2853	1272.1	0.7012
313.15 K, x2 = 0.3543	1267.6	0.7205
313.15 K, x2 = 0.4293	1263.5	0.7428
313.15 K, x2 = 0.5092	1260.5	0.7677
313.15 K, x2 = 0.581	1259	0.7912
313.15 K, x2 = 0.6518	1258.6	0.8152
313.15 K, x2 = 0.7248	1259.6	0.8408
313.15 K, x2 = 0.7888	1262	0.8642
313.15 K, x2 = 0.8595	1266	0.8906
313.15 K, x2 = 0.9298	1271.8	0.9176
318.15 K, x2 = 0	1285.2	0.5972
318.15 K, x2 = 0.0672	1277.2	0.6114
318.15 K, x2 = 0.1391	1269.7	0.6267
318.15 K, x2 = 0.2103	1263	0.6427
318.15 K, x2 = 0.2853	1256.9	0.661
318.15 K, x2 = 0.3543	1252.1	0.6786
318.15 K, x2 = 0.4293	1247.7	0.699
318.15 K, x2 = 0.5092	1244.1	0.7218
318.15 K, x2 = 0.581	1242.1	0.743
318.15 K, x2 = 0.6518	1241.3	0.7649
318.15 K, x2 = 0.7248	1241.7	0.7884
318.15 K, x2 = 0.7888	1243.4	0.8098
318.15 K, x2 = 0.8595	1246.6	0.834
318.15 K, x2 = 0.9298	1251.6	0.859

From the NIST ThermoML archive (doi:10.1016/j.jct.2017.01.016)
